Where two headings read alike, the source gives them in different places.

Consider seven compounds from US4206225A, “2,10-Disubstituted dibenzo[b,d]pyrans and benzo[c]quinolines” (priority 1978, dated 1980).

Test [1] relates to phenylbenzoquinone irritant-induced writhing in mice. Briefly: Suppression of phenylbenzoquinone (PBQ) irritant-induced writhing. The note with it: Mus musculus, read-out: ED50 in PBQ Writhing Test. The test is classed as in vivo, mice (Carworth Farms CF-1). How it is done:
The analgesic properties of the compounds of this invention are determined by tests using thermal nociceptive stimuli, such as the mouse tail flick procedure, or chemical nociceptive stimuli, such as measuring the ability of a compound to suppress phenylbenzoquinone irritant-induced writhing in mice. These tests and others are described below.
Suppression of Phenylbenzoquinone Irritant-Induced Writhing
Groups of 5 Carworth Farms CF-1 mice are pretreated subcutaneously or orally with saline, morphine, codine or the test compound. Twenty minutes (if treated subcutaneously) or fifty minutes (if treated orally) later, each group is treated with intraperitoneal injection of phenylbenzoquinone, an irritant known to produce abdominal contractions. The mice are observed for 5 minutes for the presence or absence of writhing starting 5 minutes after the injection of the irritant. MPE50 's of the drug pretreatments in blocking writhing are ascertained.
(§1) Results of the above tests are recorded as percent maximum possible effect (% MPE). The % MPE of each group is statistically compared to the % MPE of the standard and the predrug control values. The % MPE is calculated as follows: [formula]
(§2) The analgesic activity is reported in terms of MPE50, the dose at which half of the maximal possible analgesic effect is observed in a given test.
The analgesic activity of several compounds of the invention in the above described test for suppresion of phenylbenzoquinone (PBQ) irritant-inducedwrithing are set forth below in Table I.

Test [2] relates to rabbits. The note with it: 20 mg./kg.; cited from earlier work.
The test system of test [3] is animal pharmacology. The note with it: in vivo; cited from earlier work.
In test [4] the test system is thermal nociceptive stimulus (heat applied to the tail) in mice. Kind of test: Mouse tail flick analgesic testing. Format: in vivo. Conditions: s.c.
From the text: (b) Mouse Tail Flick Analgesic Testing
Tail flick testing in mice is modified after D'Amour and Smith, J. Pharmacol. Exp. Ther., 72, 74-79 (1941), using controlled high intensity heat applied to the tail. Each mouse is placed in a snug-fitting metal cylinder, with the tail protruding through one end. This cylinder is arranged so that the tail lies flat over a concealed heat lamp. At the onset of testing, an aluminum flag over the lamp is drawn back, allowing the light beam to pass through the slit and focus onto the end of the tail. A timer is simultaneously activated. The latency of a sudden flick of the tail is ascertained. Untreated mice usually react within 3-4 seconds after exposure to the lamp. The end point for protection is 10 seconds. Each mouse is tested at 0.5 and 2 hours after treatment with morphine and the test compound. Morphine has an MPE5 50 of 3.2-5.6 mg./kg. (s.c.).
as §1, §2

Test [5] relates to thermal nociceptive stimulus (hot plate, 57° C.) in mice. Kind of test: Mouse hot plate analgesic testing. Format: in vivo. Conditions: s.c. How it is done: (a) Mouse Hot Plate Analgesic Testing
The method used is modified after Woolfe and MacDonald, J. Pharmacol. Exp. Ther., 80, 300-307 (1944). A controlled heat stimulus is applied to the feet of mice on a 1/8" think aluminum plate. A 250 watt reflector infrared heat lamp is place under the bottom of the aluminum plate. A thermal regulator, connected to thermistors on the plate surface, programs the heat lamp to maintain a constant temperature of 57° C. Each mouse dropped into a glass cylinder (61/2" diameter) resting on the hot plate, and timing is begun when the animal's feet touch the plate. At 0.5 and 2 hours after treatment with the test compound the mouse is observed for the first "flicking" movements of one or both hind feet or until 10 seconds elapse without such movements. Morphine has an MPE50 =4-5.6 mg./kg. (s.c.).
as §1, §2

The mark [6] stands for this setting: sc, subcutaneous, twenty minutes pretreatment.
The mark [7] stands for this setting: oral, fifty minutes pretreatment.

With `CC(CCCc1ccccc1)c1cc2c(cc1O)C1C(O)CCCC1C(C)(C)O2` (mixture of isomers) [Example 11, dl-cis-6a,7,8,9,10a-Hexahydro-2,10-dihydroxy-6,6-dimethyl-3-(1-methyl-4-phenylbutyl)-6H-dibenzo[b,d]pyran], the ED50 in test [1] (setting [6]) came out at 27 mg/kg. `CC(CCCc1ccccc1)c1cc2c(cc1O)C1=C(CCCC1)C(C)(C)O2` (racemic) [Example 16, dl-7,8,9,10-Tetrahydro-2-hydroxy-6,6-dimethyl-3-(1-methyl-4-phenylbutyl)-6H-dibenzo[b,d]pyran]: the ED50 in test [1] (setting [7]) came to 10 mg/kg. Same read-out and setting: then `CC(CCCc1ccccc1)c1cc2c(cc1O)C1=C(CCCC1O)C(C)(C)O2` (racemic) [Example 21, dl-7,8,9,10-Tetrahydro-2,10α-dihydroxy-6,6-dimethyl-3-(1-methyl-4-phenylbutyl)-6H-dibenzo[b,d]pyran], with 10 mg/kg.

As for `CC(CCCc1ccccc1)c1cc2c(cc1O)[C@@H]1C(=O)CCC[C@@H]1C(C)(C)O2` (relative stereo) [Example 9A, dl-cis-6a,7,8,9,10,10a-Hexahydro-2-hydroxy-6,6-dimethyl-3-(1-methyl-4-phenylbutyl)-10-oxo-6H-dibenzo[b,d]pyran], the ED50 in test [1] (setting [6]) is 10 to 32 mg/kg.

With `CCCCCc1cc2c(cc1O)C1=C(CCC(C)C1)C(C)(C)O2` (centres unmarked) [6,7,8,9-tetrahydro-2-hydroxy-3-n-amyl-6,6,9-trimethyldibenzo[b,d]pyran], in test [2], the activity in rabbits result was “inactive”. `CCCCCc1cc(O)c2c(c1)N(C)C(C)(C)C1=C2CC(C)CC1` (centres unmarked) [7,8,9,10-tetrahydro-1-hydroxy-5,6,6,9-tetramethyl-3-n-pentylphenanthridine]: in test [3], the “activity in animal pharmacology” value was “completely inert”. For the compound `CN1CC[C@]23c4c5ccc(O)c4O[C@H]2[C@@H](O)C=C[C@H]3[C@H]1C5` [Morphine], in test [4], the “MPE50 (printed MPE5 50)” value is 3.2 to 5.6 mg/kg. In test [5], this compound registered an MPE50 of 4 to 5.6 mg/kg.
